Assay results as given in patent US12091393B2, “Small molecule vaccine adjuvant for enhancing or prolonging immune response” (The Regents of the University of California, priority 2018, dated 2024).
“Also recorded” adds a separate entry of the source. Read-outs that look alike come from different tables or passages of the source.

What was measured:
[1] = test system: THP-1 cells; experiment: Cell viability assay (MTT); format: cell-based; conditions: compound 5 μM alone, 18 h, normalized to DMSO as 100%
How it was run: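 THP-1 cells in RPMI/10% FBS got compound at a final 5 μM (0.05% DMSO) for 18 h. MTT (0.5 mg/mL) was then added for 4 to 6 h, followed by SDS/HCl lysis overnight. Absorbance was read at 570 nm against 650 nm reference.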

[2] = test system: NF-κB; experiment: cell-based NF-κB FRET assay; conditions: compound + LPS; two point normalized, compound 1 as 200%, LPS (10 ng/mL) as 100%
Description: Site A was assigned the 4-substituent of thiazole ring, site B was the thiazole ring itself, site C was the central amide bond in the structure, site D was the benzene ring bearing 1,4-carboxyl and sulfamoyl group, site E was the sulfonamide functional group and site F was the amide substituent on the sulfamoyl group.

[3] = test system: NF-κB; experiment: Measurement of NF-κB activation using THP1-Blue NF-κB cells (SEAP); format: cell-based; conditions: for activity at 5 µM: 20 h, two point normalized, compound 1 as 200%; for NF-κB activity (SAR discussion, in words): evaluated in both the presence and absence of LPS
[4] = compound 5 μM + LPS, LPS (10 ng/mL) as 100%, read-out: NF-κB SEAP Compound + LPS % Activation
[5] = compound 5 μM alone, LPS or DMSO as 100%, read-out: NF-κB SEAP Compound alone % Activation

Compound | MTT Compound alone % Viability [1] | NF-κB FRET Compound + LPS % Activation [2] | activity at 5 µM [3, 4] | activity at 5 µM [3, 5] | NF-κB activity (SAR discussion, in words) [3]
Cc1ccc(N=[N+]=[N-])c(-c2csc(NC(=O)c3ccc(S(=O)(=O)N4CCCCC4)cc3)n2)c1 [Compound 70, N-(4-(2-azido-5-methylphenyl)thiazol-2-yl)-4-(piperidin-1-ylsulfonyl)benzamide] | 77.84% | 70.93% | 97.3% | 101% | inactive
Cc1ccc(C)c(-c2ccc(NC(=O)c3ccc(S(=O)(=O)N4CCCCC4)cc3)nc2)c1 [Compound 18c, N-(5-(2,5-dimethylphenyl)pyridin-2-yl)-4-(piperidin-1-ylsulfonyl)benzamide] | 92.06% | 73.65% | 97.9% | 98.3% | none of these molecules that replaced the thiazole functionality were active
C#CC1CCN(S(=O)(=O)c2ccc(C(=O)Nc3nc(-c4cc(N=[N+]=[N-])ccc4C)cs3)cc2)CC1 [Compound 73, N-(4-(5-azido-2-methylphenyl)thiazol-2-yl)-4-((4-ethynylpiperidin-1-yl)sulfonyl)benzamide] | 84.53% | 197.10% | 398% | 363% | –
CCCN(CC)S(=O)(=O)c1ccc(C(=O)Nc2nc(-c3cc(C)ccc3C)cs2)cc1 [Compound 58a, N-(4-(2,5-dimethylphenyl)thiazol-2-yl)-4-(N-ethyl-N-propylsulfamoyl)benzamide] | 73.63% | 158.36% | 217% | 207% | tolerated; also recorded: active
CC(=O)N1CCN(S(=O)(=O)c2ccc(C(=O)Nc3nc(-c4cc(C)ccc4C)cs3)cc2)CC1 [Compound 58j, 4-((4-acetylpiperazin-1-yl)sulfonyl)-N-(4-(2,5-dimethylphenyl)thiazol-2-yl)benzamide] | 72.09% | 90.73% | 101% | 101% | inactive
CCCN(CCC)S(=O)(=O)c1ccc(C(=O)Nc2nc(-c3cc(C)ccc3C)cs2)cc1 [Compound 58b, N-(4-(2,5-dimethylphenyl)thiazol-2-yl)-4-(N,N-dipropylsulfamoyl)benzamide] | 83.69% | 190.52% | 260% | 243% | tolerated; also recorded: active
C#CC1CCN(S(=O)(=O)c2ccc(C(=O)Nc3nc(-c4cc(C)ccc4C)cs3)cc2)CC1 [Compound 72d, N-(4-(2,5-dimethylphenyl)thiazol-2-yl)-4-((4-ethynylpiperidin-1-yl)sulfonyl)benzamide] | 83.27% | 123.22% | 152% | 112% | active
CCCc1csc(NC(=O)c2ccc(S(=O)(=O)N3CCCCC3)cc2)n1 [Compound 12i, 4-(piperidin-1-ylsulfonyl)-N-(4-propylthiazol-2-yl)benzamide] | 122.66% | 112.46% | 94.2% | 99.2% | None of these molecules had any NF-κB activity
Cc1ccc(C)c(-c2csc(NC(=O)c3ccc(S(=O)(=O)N4CCNCC4)cc3)n2)c1 [Compound 58i, N-(4-(2,5-dimethylphenyl)thiazol-2-yl)-4-(piperazin-1-ylsulfonyl)benzamide] | 75.86% | 101.27% | 104% | 101% | inactive
Cc1ccc(C)c(-c2csc(NC(=O)c3ccc(S(=O)(=O)C4CCCCC4)cc3)n2)c1 [Compound 49b, 4-(cyclohexylsulfonyl)-N-(4-(2,5-dimethylphenyl)thiazol-2-yl)benzamide] | 81.81% | 136.43% | 114% | 99.8% | none of these modifications at site D or E were tolerated
CCc1csc(NC(=O)c2ccc(S(=O)(=O)N3CCCCC3)cc2)n1 [Compound 12h, N-(4-ethylthiazol-2-yl)-4-(piperidin-1-ylsulfonyl)benzamide] | 122.75% | 108.38% | 94% | 98.7% | None of these molecules had any NF-κB activity
C#CCN(CC)S(=O)(=O)c1ccc(C(=O)Nc2nc(-c3cc(C)ccc3C)cs2)cc1 [Compound 72b, N-(4-(2,5-dimethylphenyl)thiazol-2-yl)-4-(N-ethyl-N-(prop-2-yn-1-yl)sulfamoyl)benzamide] | 81.42% | 129.85% | 109% | 105% | lost their activity
Cc1ccc(C)c(-c2csc(N(C)C(=O)c3ccc(S(=O)(=O)N4CCCCC4)cc3)n2)c1 [Compound 34c, N-(4-(2,5-dimethylphenyl)thiazol-2-yl)-N-methyl-4-(piperidin-1-ylsulfonyl)benzamide] | 97.43% | 143.05% | 105% | 101% | inactive
C#CCNS(=O)(=O)c1ccc(C(=O)Nc2nc(-c3cc(C)ccc3C)cs2)cc1 [Compound 72a, N-(4-(2,5-dimethylphenyl)thiazol-2-yl)-4-(N-(prop-2-yn-1-yl)sulfamoyl)benzamide] | 87.46% | 121.36% | 102% | 99.2% | lost their activity
CCCCN(CCCC)S(=O)(=O)c1ccc(C(=O)Nc2nc(-c3cc(C)ccc3C)cs2)cc1 [Compound 58c, 4-(N,N-dibutylsulfamoyl)-N-(4-(2,5-dimethylphenyl)thiazol-2-yl)benzamide] | 86.41% | 104.47% | 105% | 103% | lost activity
CCCC1CCN(S(=O)(=O)c2ccc(C(=O)Nc3nc(-c4cc(C)ccc4Br)cs3)cc2)CC1 [Compound 59, N-(4-(2-bromo-5-methylphenyl)thiazol-2-yl)-4-((4-propylpiperidin-1-yl)sulfonyl)benzamide] | 98.59% | 211.88% | 298% | 484% | very potent and showed better potency than compound 1
Cc1ccc(C)c(-c2csc(NC(=O)c3cccc(C(=O)N4CCCCC4)c3)n2)c1 [Compound 49d, N-(4-(2,5-dimethylphenyl)thiazol-2-yl)-3-(piperidine-1-carbonyl)benzamide] | 88.06% | 136.46% | 112% | 99.6% | none of these modifications at site D or E were tolerated
Cc1ccc(C)c(-c2csc(NC(=O)c3ccc(SC4CCCCC4)cc3)n2)c1 [Compound 49a, 4-(cyclohexylthio)-N-(4-(2,5-dimethylphenyl)thiazol-2-yl)benzamide] | 85.22% | 139.79% | 114% | 99.7% | none of these modifications at site D or E were tolerated
Cc1ccc(C)c(-c2csc(NC(=O)c3ccc(S(=O)(=O)NC4CCCCC4)cc3)n2)c1 [Compound 58e, 4-(N-cyclohexylsulfamoyl)-N-(4-(2,5-dimethylphenyl)thiazol-2-yl)benzamide] | 93.65% | 52.23% | 94.5% | 98.3% | inactive
Cc1ccc2c(c1)-c1nc(NC(=O)c3ccc(S(=O)(=O)N4CCCCC4)cc3)sc1C2 [Compound 12r, N-(5-methyl-8H-indeno[1,2-d]thiazol-2-yl)-4-(piperidin-1-ylsulfonyl)benzamide] | 82.46% | 129.01% | 95.6% | 102% | weakly active
Cc1ccc(C)c(-c2csc(NC(=O)c3ccc(S(=O)(=O)N4CCCCC4)cn3)n2)c1 [Compound 46a, N-(4-(2,5-dimethylphenyl)thiazol-2-yl)-5-(piperidin-1-ylsulfonyl)picolinamide] | 94.46% | 151.90% | 111% | 99.2% | none of these modifications at site D or E were tolerated
